In PMC3578829, “A Small Molecule (Pluripotin) as a Tool for Studying Cancer Stem Cell Biology: Proof of Concept” (PLoS ONE, 2013):
“Also recorded” adds a separate entry of the source.

Legend:
COLO 205 = assay: Soft agar cloning assay; type: cell-based; conditions: 1.25 µM SL0101 for 24 hrs prior to cloning, evaluated 7 days later, all plating densities
Method: The soft agar colony formation assay has been previously described. In brief, for each treatment condition, triplicate 35 mm^2 dishes were coated with a 1 ml base layer containing 0.7% agarose (Seaplaque: FMC Corp., Rockland, ME). On day 0, cells were dissociated, washed once in growth medium, and subcultured by layering various cell concentrations in 0.5 ml culture medium containing 0.3% agarose onto the base coat. Culture dishes were transferred to a refrigerator (4°C) for 15 min, to room temperature for 10 min, and then to culture incubators. An upper layer of 0.5 ml culture medium was applied on day 0. Cultures were stained with MTT (1 mg/ml) for visualization and imaging at multiple time intervals (day 7 and 14). Cumulative counts of colonies (diameters, >60 µm) and cumulative volumes of CFU (diameters >120 µm) were determined with an Omnicon FAS-II (Bausch & Lomb, Rochester, NY) following calibration with an Omnicon test plate 3 and polystyrene microspheres embedded in soft agar matrix. The evaluable region of each culture dish (35 contiguous fields equivalent to 51% of the cell layer culture volume) was analyzed. Selective scoring of viable cell groups was achieved by adjustment of the instrument detection threshold to exclude images of nonstained cellular material and debris. The data was analyzed with Lotus Symphony software.

Raf = conditions: cited from earlier work
PKC = conditions: cited from earlier work
MEK = conditions: cited from earlier work

## CC(=O)O[C@@H]1[C@@H](OC(C)=O)[C@@H](O)[C@H](Oc2c(-c3ccc(O)cc3)oc3cc(O)cc(O)c3c2=O)O[C@H]1C [SL0101]
COLO 205
  Colony formation (≥60 µm) in soft agar vs control: increased colony formation; also recorded: Statistically significant increases in colony formation
Raf
  Activity against Raf: no activity
PKC
  Activity against PKC: no activity
MEK
  Activity against MEK: no activity
